Square brackets hold non-standard residues; d marks the D form. Ends that are not written are not given here. Peptide text beside a SMILES is read from it. hArg = N=C(N)NCCCC[C@H](N)C(=O)O; Nle = CCCC[C@H](N)C(=O)O; Aib = CC(C)(N)C(=O)O
Tests used:
[1] = biological target: T1, human P1R (Homo sapiens, UniProt Q03431); assay: cAMP stimulation in HKRK-B28 cells; format: cell-based; conditions: basal 4.0 ± 0.1 pmole/well not subtracted
T1 construct: expressed in transfected cells; host or cells: HKRK-B28 (porcine kidney LLC-PK1, stably transfected)
T1 sequence (Q03431 27-593): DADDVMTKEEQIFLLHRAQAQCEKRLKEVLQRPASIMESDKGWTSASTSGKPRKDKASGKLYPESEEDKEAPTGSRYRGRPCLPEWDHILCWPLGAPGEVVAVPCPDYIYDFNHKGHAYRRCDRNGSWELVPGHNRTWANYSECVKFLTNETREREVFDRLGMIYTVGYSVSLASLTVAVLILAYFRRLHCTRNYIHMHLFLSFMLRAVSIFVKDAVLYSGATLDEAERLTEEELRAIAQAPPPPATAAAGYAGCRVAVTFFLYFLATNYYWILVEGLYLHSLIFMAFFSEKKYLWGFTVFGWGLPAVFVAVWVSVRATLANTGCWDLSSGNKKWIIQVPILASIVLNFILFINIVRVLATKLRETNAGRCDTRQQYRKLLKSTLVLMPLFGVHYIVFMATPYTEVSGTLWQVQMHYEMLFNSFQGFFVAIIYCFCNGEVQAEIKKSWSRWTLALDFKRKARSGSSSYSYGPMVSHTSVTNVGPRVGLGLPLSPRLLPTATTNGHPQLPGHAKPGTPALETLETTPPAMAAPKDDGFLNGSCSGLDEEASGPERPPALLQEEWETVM
Protocol: (§1) Cell Culture. The cell line HKRK-B28 (Takasu, H., et al., J. Bone Miner. Res. 14:11-20 (1999)) was derived from the porcine kidney cell line, LLC-PK1 by stable transfection with plasmid DNA encoding the human P1R and expresses ˜280,000 receptors per cell. These cells, as well as COS-7 cells and SaOS-2-B10 cells, were cultured at […] in T-75 flasks ([…]) in Dulbecco's modified Eagle's medium (DMEM) supplemented with fetal bovine serum (10%), penicillin G (20 units/ml), streptomycin sulfate (20 μg/ml) and amphotericin B (0.05 μg/ml) in a humidified atmosphere containing 5% CO2. Stock solutions of EGTA/trypsin and antibiotics were from GIBCO; fetal bovine serum was from Hyclone Laboratories (Logan, Utah). COS-7 cells sub-cultured in 24-well plates were transfected with plasmid DNA (200 ng per well) encoding the wild-type human P1R or truncated human P1R deleted for residues (24-181) (Shimizu, M., et al., J. Biol. Chem. 275:21836-21843 (2000)) that was purified by cesium chloride/ethidium bromide density gradient centrifugation, and FuGENE 6 transfection reagent (Roche Indianapolis Ind.) according to the manufacturer's recommended procedure. All cells, in 24-well plates, were treated with fresh media and shifted to 33° C. for 12 to 24 h prior to assay.
(§2) cAMP Stimulation. Stimulation of cells with peptide analogs was performed in 24-well plates. Cells were rinsed with 0.5 mL of binding buffer (50 mM Tris-HCI, […], 5 mM KCl, 2 mM CaCl2, 5% heat-inactivated horse serum, 0.5% fetal bovine serum, adjusted to pH 7.5 with HCl) and treated with 200 μL of cAMP assay buffer (Delbecco's modified Eagle's medium containing 2 mM 3-isobutyl-1-methylxanthine, 1 mg/mL bovine serum albumin, 35 mM Hepes-NaOH, pH 7.4) and 100 μL of binding buffer containing varying amounts of peptide analog (final volume=300 μL). The medium was removed after incubation for 30 to 60 minutes at room temperature, and the cells were frozen on dry ice, lysed with 0.5 mL 50 mM HCl, and refrozen ([…]). The cAMP content of the diluted lysate was determined by radioimmunoassay. The EC50 response values were calculated using nonlinear regression (see below).
(§3) Data Calculation. Calculations were performed using Microsoft® Excel. Nonlinear regression analyses of binding and cAMP dose-response data were performed using the four-parameter equation: yp=Min+[(Max−Min)/(1+(IC50/x)^slope)]. The Excel Solver function was utilized for parameter optimization, as described previously (Carter, P. H., et al., Endocrinology 140: 4972-4981 (1999); Bowen, W. P., and Jerman, J. C., Trends in Pharmacol. Sci. 16: 413-417 (1995)). Differences between paired data sets were statistically evaluated using a one-tailed Student's t-test, assuming unequal variances for the two sets.

[2] = biological target: T1, human P1R; assay: Competition binding in HKRK-B28 cells; conditions: HKRK-B28 cells
Protocol: as §1
(§4) Competition Binding. Binding reactions were performed with HKRK-B28 cells or in COS-7 cells in 24-well plates. The cells were rinsed with 0.5 mL of binding buffer, and then treated successively with 100 μL binding buffer, 100 μL of binding buffer containing various amounts of unlabeled competitor ligand, and 100 μL of binding buffer containing ca. 100,000 cpm of ^125I-[M]PTH(1-21) or ^125I-[Aib^1,3,M]PTH(1-21)} (ca. 26 fmol; final volume=300 μL). Incubations were 4 to 6 h at 4° C., at which time near equilibrium conditions were attained. Cells were then placed on ice, the binding medium was removed, and the monolayer was rinsed three times with 0.5 mL of cold binding buffer. The cells were subsequently lysed with 0.5 mL […] and counted for radioactivity. For each tracer and in each experiment, the non-specific binding was determined as the radioactivity that bound in the presence of the same unlabeled peptide at a concentration of 1 μM, and was ˜1% of total radioactivity added for each tracer. The maximum specific binding (B0) was the total radioactivity bound in the absence of competing ligand, corrected for nonspecific binding, and for each tracer, ranged from 8% to 20% of the total radioactivity added. Nonlinear regression was used to calculate binding IC50 values (see below). Scatchard transformations of homologous competition binding data derived from studies with 26 fmol of ^125I-[Aib^1,3,M]PTH(1-21) were employed for estimations of apparent equilibrium dissociation constant (kDapps) and total number of ligand binding sites (Bmax), assuming a single class of binding sites and equal affinities of the iodinated and non iodinated ligand.
as §3
The P1R-binding properties of these analogs were assayed in competition studies performed in […]. In previous studies, PTH(1-14) binding could not be detected using ^125I-PTH(1-34) and related N-terminally intact and relatively unmodified radioligands (Luck, M. D., et al., Molecular Endocrinology 13:670-680 (1999)). […]

[3] = biological target: T2, PTH-1 receptor endogenously expressed in SaOS-2 cells (Homo sapiens, UniProt Q03431); assay: cAMP stimulation in SaOS-2 cells; format: cell-based; conditions: for EMAX(obs.): cAMP, basal 6.4 ± 0.8
T2 construct: endogenously expressed relatively low levels of the PTH-1 receptor; endogenous in cells; host or cells: SaOS-2 (SaOS-2-B10) human osteosarcoma cells
T2 sequence (Q03431 27-593): T1 sequence (Q03431 27-593)
Protocol: as §1, §2, §3
The number of PTH-1 receptors expressed on the surface of the PTH target cells in bone or kidney is uncertain, but it is likely to be considerably lower than that found in HKRK-B28 cells. Therefore, several of the Aib-mounted PTH analogs were evaluated using SaOS-2 cells.

[4] = biological target: T3, wild-type human P1R (hP1R-WT) (Homo sapiens, UniProt Q03431); assay: cAMP stimulation in COS-7 cells expressing hP1R-WT; format: cell-based; conditions: hP1R-WT, basal 10.3 ± 1.1, asterisk = plateau not attained
T3 construct: expressed in transfected cells; host or cells: COS-7 (transient, FuGENE 6)
T3 sequence (Q03431 27-593): T1 sequence (Q03431 27-593)
Protocol: as §1, §2, §3

[5] = biological target: T4, P1R-delNt, truncated human P1R deleted for residues (24-181) (Homo sapiens, UniProt Q03431); assay: cAMP stimulation in COS-7 cells expressing hP1R-delNt; format: cell-based; conditions: hP1R-delNT, basal 9.5 ± 1.3, asterisk = plateau not attained
T4 construct: expressed in transfected cells; host or cells: COS-7 (transient, FuGENE 6)
T4 sequence (Q03431 with tags, fused parts or gaps limits assumed): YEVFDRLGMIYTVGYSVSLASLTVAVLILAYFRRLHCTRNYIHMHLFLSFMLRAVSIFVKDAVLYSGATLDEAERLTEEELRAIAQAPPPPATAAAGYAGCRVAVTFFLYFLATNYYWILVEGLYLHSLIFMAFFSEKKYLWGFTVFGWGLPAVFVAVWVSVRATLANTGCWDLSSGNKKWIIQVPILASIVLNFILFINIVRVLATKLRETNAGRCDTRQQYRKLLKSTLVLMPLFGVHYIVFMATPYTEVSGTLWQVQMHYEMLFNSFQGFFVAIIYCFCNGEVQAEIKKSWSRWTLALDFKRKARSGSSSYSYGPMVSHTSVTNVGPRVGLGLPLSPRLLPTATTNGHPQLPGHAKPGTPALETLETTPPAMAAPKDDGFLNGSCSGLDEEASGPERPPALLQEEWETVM
Protocol: as §1, §2, §3
The possibility that the activity-enhancing effects of the Aib substitutions at positions 1 and 3 were mediated through the juxtamembrane (J) region of the receptor was investigated in COS-7 cells transiently transfected with P1R-delNt. P1R-delNt was a truncated P1R that lacked most of the amino-terminal extracellular domain.

[6] = biological target: T3, wild-type human P1R (hP1R-WT); assay: Competition binding in COS-7 cells expressing hP1R-WT; conditions: P1R-WT; Scatchard transformation of homologous competition binding; read-out: apparent equilibrium dissociation constant (KDapp)
Protocol: as §1, §4
Data Calculation. Calculations were performed using Microsoft® Excel. Nonlinear regression analyses of binding and cAMP dose-response data were performed using the four-parameter equation: yp=Min+[(Max−Min)/(1+(IC50/x)^slope)]. […] Differences between paired data sets were statistically evaluated using a one-tailed Student's t-test, assuming unequal variances for the two sets. […]

[7] = biological target: T4, P1R-delNt, truncated human P1R deleted for residues (24-181); assay: Competition binding in COS-7 cells expressing hP1R-delNt; conditions: COS-7 cells
[8] = biological target: T1, human P1R; conditions: HKRK-B28 cells; previously shown (Shimizu et al., Endocrinology 2001); read-out: cAMP EC50; cited from earlier work

Compound | cAMP EMax(obs.) [1] | fold improvement of apparent binding affinity relative to [M]PTH(1-14) [2] | fold more potent in stimulating cAMP formation than [M]PTH(1-14) [3] | EMAX(obs.) [3] | cAMP EMax(obs.) [4] | cAMP EMax(obs.) [5] | Kd [6] | affinity at P1R-delNt, fold weaker than at P1R-WT [7] | Binding IC50 ([7]; hP1R-delNT, tracer 125I-[Aib^1,3,M]PTH(1-21), N.B. = no inhibition of tracer binding) | EC50 [8]
CC[C@H](C)[C@H](NC(=O)[C@H](CCC(=O)O)NC(=O)[C@H](C)NC(=O)[C@@H](NC(=O)C(C)(C)N)C(C)C)C(=O)N[C@@H](CCC(N)=O)C(=O)N[C@@H](CC(C)C)C(=O)N[C@@H](CCSC)C(=O)N[C@@H](Cc1c[nH]cn1)C(=O)N[C@@H](CCC(N)=O)C(=O)N[C@@H](CCCCNC(=N)N)C(=O)N[C@@H](C)C(=O)N[C@@H](CCCCN)C(=O)N[C@@H](Cc1c[nH]c2ccccc12)C(N)=O [Aib-1, AibValAlaGluIleGlnLeuMetHisGlnHarAlaLysTrp] (H-[Aib]VAEIQLMHQ[hArg]AKW-NH2) | 273 ± 6 pmole/well | approximately 10 fold | 15 fold | 340 ± 30 pmole/well | – | – | – | – | – | –
CC[C@H](C)[C@H](NC(=O)[C@H](CCC(=O)O)NC(=O)C(C)(C)NC(=O)[C@@H](NC(=O)[C@H](C)N)C(C)C)C(=O)N[C@@H](CCC(N)=O)C(=O)N[C@@H](CC(C)C)C(=O)N[C@@H](CCSC)C(=O)N[C@@H](Cc1c[nH]cn1)C(=O)N[C@@H](CCC(N)=O)C(=O)N[C@@H](CCCCNC(=N)N)C(=O)N[C@@H](C)C(=O)N[C@@H](CCCCN)C(=O)N[C@@H](Cc1c[nH]c2ccccc12)C(N)=O [Aib-3, AlaValAibGluIleGlnLeuMetHisGlnHarAlaLysTrp] (H-AV[Aib]EIQLMHQ[hArg]AKW-NH2) | 269 ± 7 pmole/well | approximately 10 fold | 8 fold | 330 ± 30 pmole/well | – | – | – | – | – | –
CCCC[C@H](NC(=O)[C@H](CC(C)C)NC(=O)[C@H](CCC(N)=O)NC(=O)[C@@H](NC(=O)[C@H](CCC(=O)O)NC(=O)C(C)(C)NC(=O)[C@@H](NC(=O)C(C)(C)N)C(C)C)[C@@H](C)CC)C(=O)N[C@@H](Cc1c[nH]cn1)C(=O)N[C@@H](CCC(N)=O)C(=O)N[C@@H](CCCCNC(=N)N)C(=O)N[C@@H](C)C(=O)N[C@@H](CCCCN)C(=O)N[C@@H](Cc1c[nH]c2ccccc12)C(=O)N[C@@H](CC(C)C)C(=O)N[C@@H](C)C(=O)N[C@@H](CO)C(=O)N[C@H](C(=O)N[C@@H](CCCNC(=N)N)C(=O)N[C@@H](CCCNC(=N)N)C(=O)N[C@@H](Cc1ccc(O)cc1)C(N)=O)C(C)C [[Aib^1,3,M]PTH(1-21), AibValAibGluIleGlnLeuNleHisGlnHarAlaLysTrpLeu-AlaSerValArgArtTyr] (H-[Aib]V[Aib]EIQL[Nle]HQ[hArg]AKWLASVRRY-NH2) | 284 ± 76 pmole/well | – | – | – | 300 ± 30 pmole/well | 240 ± 20 pmole/well | 0.017 ± 0.002 µM | < 2 fold | effectively inhibited the binding | –
[Ala^3,Gln^10]PTH(1-10) (SVAEIQLMHQ-NH2; UniProt P01270 32-41, looked up, variant S3A N10Q) | – | – | – | – | – | – | – | – | – | ~800 µM

From patent US7572765B2, “Conformationally constrained parathyroid hormone (PTH) analogs” (The General Hospital Corporation, priority 2001, dated 2009)
